Experimental data from US20050107440A1, “Rosiglitazone edisylates and their use as antidiabetics” (priority 2001, published 2005).

Columns and labels:
Format in all cases: physicochemical
[1] = Solubility of the Ethanedisulfonate Form I in water (visual, aliquot addition); settings: water added in aliquots 0.25 to 1 ml to approx. 30 mg; product of Example 2
[2] = Solubility of the Ethanedisulfonate Form II in water (visual, confirmed by HPLC assay of a saturated solution); settings: water added in aliquots 1 to 1000 ml to approx. 100 mg, product of Example 7
Text: The visual solubility was confirmed by an HPLC assay of a saturated solution.

[3] = Solid state stability of the drug substance (storage 1 month, HPLC assay); settings: product of Example 7
Description: The solid state stability of the drug substance was determined by storing approximately 1.0 g of the material in a glass bottle at a) 40° C./75% Relative Humidity (RH), open exposure, for 1 month and b) at 50° C., closed, for 1 month. […] Solubility of the Ethanedisulfonate Form II

| Structure (SMILES) | Solubility [1] [µg/mL] | Solubility [2] [µg/mL] | Solid state stability: HPLC assay (final content) ([3]; 40° C./75% RH, open exposure) [% initial] | Solid state stability: degradation ([3]; 40° C./75% RH, open exposure) | Solid state stability: HPLC assay (final content) ([3]; 50° C., closed) [% initial] | Solid state stability: degradation ([3]; 50° C., closed) |
| --- | --- | --- | --- | --- | --- | --- |
| CN(CCOc1ccc(CC2SC(=O)NC2=O)cc1)c1ccccn1.O=S(=O)(O)CCS(=O)(=O)O (stereo not drawn) [Ethanedisulfonate Form I, 5-[4-[2-(N-methyl-N-(2-pyridyl)amino)ethoxy]benzyl]thiazolidine-2,4-dione 1,2-ethanedisulfonate Form I] | 4700 |  |  |  |  |  |
| CN(CCOc1ccc(CC2SC(=O)NC2=O)cc1)c1ccccn1.O=S(=O)(O)CCS(=O)(=O)O (stereo not drawn) [Ethanedisulfonate Form II, 5-[4-[2-(N-methyl-N-(2-pyridyl)amino)ethoxy]benzyl]thiazolidine-2,4-dione 1,2-ethanedisulfonate Form II] |  | 4700 | 98 | No significant degradation observed | 99 | No significant degradation observed |
